The target in this data set is Multidrug resistance-associated protein 1 (Homo sapiens, UniProt P33527). The data set is described as follows: TP_TRANSPORTER: drug sensitivity in MRP1-expressing NIH/3T3 cells. It counts as functional, cell-based. Conditions: mouse, nih3t3.

Consider 1 molecule from ChEMBL document CHEMBL2074402, “Expression of multidrug resistance-associated protein in NIH/3T3 cells confers multidrug resistance associated with increased drug efflux and altered intracellular drug distribution” (Cancer Res, 1995).

Numbered stars: 1 amine (or outer) side, 2 acyl side, 3 side chain; on linkers, the order of the positions; unused ones are H or OH. Bridge positions count the residues as written; N and C are the ends. Square brackets hold non-standard residues; d marks the D form. Peptide text beside a SMILES is read from it. I, II: the chains in the order shown. Actinocin(9to1) = Cc1c2oc3c(C)ccc(C(=O)[*:1])c3nc-2c(C(=O)[*:2])c(N)c1=O; NMeV = CN[C@H](C(=O)O)C(C)C; Sar = CNCC(=O)O

Sequence of Multidrug resistance-associated protein 1 (P33527 whole entry): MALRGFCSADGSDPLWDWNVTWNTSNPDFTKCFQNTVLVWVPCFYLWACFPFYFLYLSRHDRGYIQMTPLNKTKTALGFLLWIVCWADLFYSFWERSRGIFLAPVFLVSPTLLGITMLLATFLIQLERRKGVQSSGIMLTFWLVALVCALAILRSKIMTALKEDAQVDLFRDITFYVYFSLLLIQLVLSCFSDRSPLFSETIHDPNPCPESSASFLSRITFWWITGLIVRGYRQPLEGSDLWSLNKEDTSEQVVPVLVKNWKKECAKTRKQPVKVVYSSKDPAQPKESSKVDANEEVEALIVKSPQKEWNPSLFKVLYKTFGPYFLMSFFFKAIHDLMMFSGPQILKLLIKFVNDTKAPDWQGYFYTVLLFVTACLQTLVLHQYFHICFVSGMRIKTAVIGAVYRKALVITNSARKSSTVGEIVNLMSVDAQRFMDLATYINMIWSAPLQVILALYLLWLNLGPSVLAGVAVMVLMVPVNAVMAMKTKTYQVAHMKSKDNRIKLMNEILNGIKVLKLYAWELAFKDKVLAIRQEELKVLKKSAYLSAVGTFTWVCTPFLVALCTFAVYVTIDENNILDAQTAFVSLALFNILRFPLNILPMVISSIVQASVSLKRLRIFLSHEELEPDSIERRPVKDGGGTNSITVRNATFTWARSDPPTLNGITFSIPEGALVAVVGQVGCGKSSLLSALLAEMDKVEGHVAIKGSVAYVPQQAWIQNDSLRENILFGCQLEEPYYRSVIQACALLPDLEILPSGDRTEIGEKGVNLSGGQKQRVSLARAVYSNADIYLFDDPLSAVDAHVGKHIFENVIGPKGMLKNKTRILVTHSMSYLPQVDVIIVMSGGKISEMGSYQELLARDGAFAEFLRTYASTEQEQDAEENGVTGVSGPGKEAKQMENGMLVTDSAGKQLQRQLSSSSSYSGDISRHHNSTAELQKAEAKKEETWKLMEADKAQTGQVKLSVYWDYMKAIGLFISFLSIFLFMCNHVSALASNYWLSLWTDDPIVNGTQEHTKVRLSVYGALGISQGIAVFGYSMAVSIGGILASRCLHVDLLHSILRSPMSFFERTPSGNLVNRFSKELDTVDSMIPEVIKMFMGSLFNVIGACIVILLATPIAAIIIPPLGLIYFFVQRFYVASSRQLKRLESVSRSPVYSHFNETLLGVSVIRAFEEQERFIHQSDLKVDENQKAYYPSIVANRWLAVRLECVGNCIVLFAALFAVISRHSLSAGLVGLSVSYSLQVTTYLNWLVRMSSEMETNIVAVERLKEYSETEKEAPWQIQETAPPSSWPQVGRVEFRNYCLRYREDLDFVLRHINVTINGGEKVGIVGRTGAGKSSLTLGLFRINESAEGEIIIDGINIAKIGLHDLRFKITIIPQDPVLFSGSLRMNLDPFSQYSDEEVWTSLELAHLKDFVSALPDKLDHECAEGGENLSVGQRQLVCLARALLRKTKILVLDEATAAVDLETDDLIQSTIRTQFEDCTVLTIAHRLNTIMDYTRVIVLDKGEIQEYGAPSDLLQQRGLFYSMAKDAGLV

As for `Cc1c2oc3c(C)ccc(C(=O)N[C@@H]4C(=O)N[C@H](C(C)C)C(=O)N5CCC[C@H]5C(=O)N(C)CC(=O)N(C)[C@@H](C(C)C)C(=O)O[C@@H]4C)c3nc-2c(C(=O)N[C@@H]2C(=O)N[C@H](C(C)C)C(=O)N3CCC[C@H]3C(=O)N(C)CC(=O)N(C)[C@@H](C(C)C)C(=O)O[C@@H]2C)c(N)c1=O` [DACTINOMYCIN] (I: T[dV]P[Sar][NMeV] / II: T[dV]P[Sar][NMeV]; ester I:1-I:C, II:1-II:C; linker I:N-II:N via Actinocin(9to1)), the Activity entry is “substrate [+]”.
